Reference: patent US10093611B2, “Benzocycloalkenes as antifungal agents” (Bayer Intellectual Property GmbH, priority 2010, dated 2018)

What was measured:
[1] = log P by HPLC on reversed-phase column (C 18), EEC Directive 79/831 Annex V.A8; type: physicochemical; conditions: C 18 reversed phase, 40° C., 0.1% aqueous formic acid and acetonitrile gradient
Method: In table 1, the log P values were determined in accordance with EEC Directive 79/831 Annex V.A8 by HPLC (High Performance Liquid Chromatography) on a reversed-phase column (C 18), using the method described below: Temperature: 40° C.; Mobile phases: 0.1% aqueous formic acid and acetonitrile; linear gradient from 10% acetonitrile to 90% acetonitrile. Calibration was carried out using unbranched alkan-2-ones (comprising 3 to 16 carbon atoms) with known log P values (determination of the log P values by the retention times using linear interpolation between two successive alkanones). lambda-max-values were determined using UV-spectra from 200 nm to 400 nm and the peak values of the chromatographic signals.

[2] = test system: Pyrenophora teres; test: In vivo preventive test on Pyrenophora teres (barley); conditions: 500 ppm of active ingredient, evaluated 7-9 days after inoculation
Method: EXAMPLE F: IN VIVO PREVENTIVE TEST ON PYRENOPHORA TERES (BARLEY) Solvent: 49 parts by weight of N,N-dimethylformamide Emulsifier: 1 part by weight of Alkylarylpolyglycolether To produce a suitable preparation of active compound, 1 part by weight of active compound is mixed with the stated amounts of solvent and emulsifier, and the concentrate is diluted with water to the desired concentration. To test for preventive activity, young plants are sprayed with the preparation of active compound at the stated rate of application. One day after this treatment, the plants are inoculated with an aqueous spore suspension of Pyrenophora teres. The plants remain for 48 hours in an incubation cabinet at 22° C. and a relative atmospheric humidity of 100%. Then the plants are placed in a greenhouse at a temperature of approximately 20° C. and a relative atmospheric humidity of approximately 80%. The test is evaluated 7-9 days after the inoculation. 0% means an efficacy which corresponds to that of the untreated control while an efficacy of 100% means that no disease is observed. Under these conditions, high (at least 90%) to total protection is observed at a dose of 500 ppm of active ingredient with the following compounds from table F: […]

[3] = test system: Alternaria solani; test: In vivo preventive test on Alternaria solani (tomato); conditions: 500 ppm of active ingredient, evaluated 7 days after inoculation
Method: EXAMPLE A: IN VIVO PREVENTIVE TEST ON ALTERNARIA SOLANI (TOMATO) Solvent: 49 parts by weight of N,N-dimethylformamide Emulsifier: 1 part by weight of Alkylarylpolyglycolether To produce a suitable preparation of active compound, 1 part by weight of active compound is mixed with the stated amounts of solvent and emulsifier, and the concentrate is diluted with water to the desired concentration. To test for preventive activity, young plants are sprayed with the preparation of active compound at the stated rate of application. One day after this treatment, the plants are inoculated with an aqueous spore suspension of Alternaria solani. The plants remain for one day in an incubation cabinet at approximately 22° C. and a relative atmospheric humidity of 100%. Then the plants are placed in an incubation cabinet at approximately 20° C. and a relative atmospheric humidity of 96%. The test is evaluated 7 days after the inoculation. 0% means an efficacy which corresponds to that of the control while an efficacy of 100% means that no disease is observed. Under these conditions, good (at least 80%) to total protection is observed at a dose of 500 ppm of active ingredient with the following compounds from table A: […]

[4] = test system: Leptosphaeria nodorum; test: In vivo preventive test on Leptosphaeria nodorum (wheat); conditions: 500 ppm of active ingredient, evaluated 8 days after inoculation
Method: EXAMPLE D: IN VIVO PREVENTIVE TEST ON LEPTOSPHAERIA NODORUM (WHEAT) Solvent: 49 parts by weight of N,N-dimethylacetamide Emulsifier: 1 part by weight of alkylaryl polyglycol ether To produce a suitable preparation of active compound, 1 part by weight of active compound or the compound combination is mixed with the stated amounts of solvent and emulsifier, and the concentrate is diluted with water to the desired concentration. To test for protective activity, young plants are sprayed with a preparation of active compound or active compound combination at the stated rate of application. After the spray coating has dried on, the plants are sprayed with a spore suspension of Leptosphaeria nodorum. The plants remain for 48 hours in an incubation cabinet at 20° C. and a relative atmospheric humidity of 100%. The plants are placed in a greenhouse at a temperature of approximately 22° C. and a relative atmospheric humidity of approximately 80%. The test is evaluated 8 days after the inoculation. 0% means an efficacy which corresponds to that of the control, while an efficacy of 100% means that no disease is observed. Under these conditions, good (at least 75%) to total protection is observed at a dose of 500 ppm of active ingredient with the following compounds from table D: Under the same conditions, excellent protection (greater than 94%) is observed at a dose of 500 ppm of active ingredient with compound 2, whereas poor protection (less than 30%) is observed with the isosteric analogue compound CMP1 claimed in WO-2009/016218 as in table D2.

[5] = test system: Sphaerotheca fuliginea; test: In vivo preventive test on Sphaerotheca fuliginea (cucumbers); conditions: 500 ppm of active ingredient, evaluated 7 days after inoculation
Method: EXAMPLE H: IN VIVO PREVENTIVE TEST ON SPHAEROTHECA FULIGINEA (CUCUMBERS) Solvent: 24.5 parts by weight of acetone • 24.5 parts by weight of N,N-dimethylacetamide Emulsifier: 1 part by weight of alkylaryl polyglycol ether To produce a suitable preparation of active compound, 1 part by weight of active compound is mixed with the stated amounts of solvent and emulsifier, and the concentrate is diluted with water to the desired concentration. To test for protect activity, young plants are sprayed with the preparation of active compound at the stated rate of application. After the spray coating has dried on, the plants are inoculated with an aqueous spore suspension of Sphaerotheca fuliginea. The plants are then placed in a greenhouse at approximately 23° C. and a relative atmospheric humidity of approximately 70%. The test is evaluated 7 days after the inoculation. 0% means an efficacy which corresponds to that of the untreated control, while an efficacy of 100% means that no disease is observed. Under these conditions, high (at least 90%) to total protection is observed at a dose of 100 ppm of active ingredient with the following compounds from table H: Under the same conditions, high protection (greater than 80%) is observed at a dose of 500 ppm of active ingredient with compound 7, whereas poor protection (less than 20%) is observed with the isosteric analogue compound CMP2 claimed in WO-2009/016218 as in table H2.

Structure (SMILES) | logP [1] | Efficacy [2] | Efficacy [3] | Efficacy [4] | Efficacy ([4]; listed as compound 2) | Efficacy [5] | Efficacy ([5]; listed as compound 7)
CC(C1CCc2ccccc2C1)N(C(=O)c1ccsc1I)C1CC1 (stereo not drawn) [Example 15] | 4.82 | – | – | – | – | – | –
Cn1cc(C(=O)N(C2CC2)C2CCc3ccccc3C2)c(C(F)F)n1 (stereo not drawn) [Example 6] | 3.08 | 100% | 95% | – | – | – | –
Cc1cc(C(=O)N(C2CC2)C(C)C2Cc3ccccc3C2)c(C)o1 (stereo not drawn) [Example 10] | 4.34 | 90% | 95% | – | – | – | –
Cn1nc(C(F)F)c(C(=S)N(C2CC2)C2CCc3ccccc3C2)c1F (stereo not drawn) [Example 9] | 4.21 | 100% | 93% | – | – | – | –
Cn1nc(C(F)F)c(C(=O)N(CC2Cc3ccccc3O2)C2CC2)c1F (stereo not drawn) [Example 19] | 2.86 | 100% | – | – | – | – | –
Cn1cc(C(=S)N(C2CC2)C2CCc3ccccc3C2)c(C(F)F)n1 (stereo not drawn) [Example 8] | 3.73 | 95% | – | – | – | – | –
Cn1nc(C(F)F)c(C(=O)N(C2CC2)C2Cc3ccccc3C2)c1F [Example 2] | 3.19 | – | 94% | 94% | greater than 94% | – | –
Cn1cc(C(=O)N(CC2Cc3ccccc3O2)C2CC2)c(C(F)F)n1 (stereo not drawn) [Example 18] | 2.54 | 95% | – | – | – | – | –
Cc1cc(C(=O)N(C2CC2)C2CCc3ccccc3C2)c(C)o1 (stereo not drawn) [Example 3] | 4.01 | – | – | – | – | – | –
Cn1nc(C(F)F)c(C(=O)N(CC2COc3ccccc3C2)C2CC2)c1F (stereo not drawn) [Example 20] | 3.00 | 100% | 80% | – | – | – | –
Cn1nc(C(F)F)c(C(=O)N(C2CC2)C2CCc3ccccc3C2)c1F (stereo not drawn) [Example 7] | 3.48 | 100% | 100% | 94% | – | 80% | greater than 80%
CCc1nn(C)c(F)c1C(=O)N(C1CC1)C1CCc2ccccc2C1 (stereo not drawn) [Example 5] | 3.35 | 95% | 95% | 78% | – | – | –
Cn1nc(C(F)F)c(C(=O)N(CC2Cc3ccccc3O2)C2CC2)c1Cl (stereo not drawn) [Example 21] | 3.04 | – | – | – | – | – | –
Cc1nn(C)c(F)c1C(=O)N(C1CC1)C1CCc2ccccc2C1 (stereo not drawn) [Example 4] | 3.00 | 90% | – | – | – | – | –
Cn1nc(C(F)F)c(C(=O)N(C2CC2)C2Cc3ccccc3C2)c1Cl [Example 1] | 3.35 | – | 89% | – | – | – | –
